The values that follow come from patent publication US12612409B2, “Pyrrolopyrimidines as CFTR potentiators” (Cystic Fibrosis Foundation, priority 2016, dated 2026).

Assay [1] deals with T1, CFTR in F508del/F508del primary CF hBE cells (Homo sapiens, UniProt P13569, DEL508-508).
T1 construct: Primary cystic fibrosis human bronchial epithelial (CF hBE) cells were expanded and cultured; endogenous in cells; host or cells: primary CF human bronchial epithelial cells, genotype F508del/F508del
The assay is described as follows: Ussing chamber electrophysiology assay of CFTR potentiation in F508del/F508del CF bronchial epithelial cells (27° C.). It counts as cell-based. In outline:
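Well-differentiated primary CF hBE cells (>30 days air/liquid interface) in Ussing chambers, HEPES saline both sides, voltage clamped to zero. Amiloride 30 uM, forskolin 10 uM, four rising compound concentrations, then CFTRinh-172 20 uM added at 20-25 min intervals. Short-circuit current scaled to DMSO (0%) and a positive control potentiator maximum (100%).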

Assay [2] deals with T2, recombinant F508del V470 CFTR in Fischer rat thyroid (FRT) cells (Homo sapiens, UniProt P13569, DEL508-508).
T2 construct: expressed in transfected cells
T2 sequence (P13569 with tags, fused parts or gaps DEL508-508): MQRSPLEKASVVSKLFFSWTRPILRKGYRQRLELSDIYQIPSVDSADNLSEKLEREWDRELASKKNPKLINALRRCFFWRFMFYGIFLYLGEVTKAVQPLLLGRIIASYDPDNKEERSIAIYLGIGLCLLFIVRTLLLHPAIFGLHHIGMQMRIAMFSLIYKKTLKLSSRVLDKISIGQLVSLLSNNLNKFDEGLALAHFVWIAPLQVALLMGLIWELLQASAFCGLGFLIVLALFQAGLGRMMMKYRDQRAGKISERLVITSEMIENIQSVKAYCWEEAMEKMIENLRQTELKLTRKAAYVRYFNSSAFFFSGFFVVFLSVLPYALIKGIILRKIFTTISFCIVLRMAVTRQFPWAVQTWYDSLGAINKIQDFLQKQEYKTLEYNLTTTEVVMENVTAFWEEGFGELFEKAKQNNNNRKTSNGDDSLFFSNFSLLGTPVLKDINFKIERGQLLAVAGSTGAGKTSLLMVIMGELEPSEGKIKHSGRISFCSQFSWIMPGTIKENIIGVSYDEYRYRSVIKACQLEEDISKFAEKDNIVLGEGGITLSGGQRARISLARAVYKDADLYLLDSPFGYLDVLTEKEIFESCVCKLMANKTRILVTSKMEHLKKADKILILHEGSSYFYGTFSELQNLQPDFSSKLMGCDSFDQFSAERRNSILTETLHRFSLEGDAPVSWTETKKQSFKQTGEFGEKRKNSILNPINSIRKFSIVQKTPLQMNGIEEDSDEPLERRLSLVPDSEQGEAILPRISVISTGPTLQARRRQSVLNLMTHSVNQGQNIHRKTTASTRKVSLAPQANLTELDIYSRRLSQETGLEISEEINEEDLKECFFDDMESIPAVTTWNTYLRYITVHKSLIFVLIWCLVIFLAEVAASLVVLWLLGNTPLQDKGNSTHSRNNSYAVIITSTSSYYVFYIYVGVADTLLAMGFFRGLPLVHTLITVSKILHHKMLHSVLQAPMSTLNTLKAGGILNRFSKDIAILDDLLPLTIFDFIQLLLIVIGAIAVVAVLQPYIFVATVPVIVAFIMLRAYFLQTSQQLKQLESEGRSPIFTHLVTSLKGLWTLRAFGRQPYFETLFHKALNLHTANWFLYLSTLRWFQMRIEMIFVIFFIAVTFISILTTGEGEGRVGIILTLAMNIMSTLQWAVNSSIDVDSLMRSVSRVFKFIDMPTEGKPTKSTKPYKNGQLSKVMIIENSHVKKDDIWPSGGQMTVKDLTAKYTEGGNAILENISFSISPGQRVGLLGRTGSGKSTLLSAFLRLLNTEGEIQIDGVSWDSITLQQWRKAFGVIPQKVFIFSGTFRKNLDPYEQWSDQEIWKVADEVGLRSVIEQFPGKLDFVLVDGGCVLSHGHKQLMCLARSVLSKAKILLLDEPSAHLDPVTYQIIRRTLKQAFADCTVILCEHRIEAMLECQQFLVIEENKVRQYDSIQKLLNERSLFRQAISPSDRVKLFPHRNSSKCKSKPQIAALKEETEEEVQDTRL
Kind of assay: FRT ion flux assay of F508del CFTR potentiation. It counts as cell-based. Conditions: FRT cells expressing F508del V470 CFTR, forskolin 20 uM, 27° C. pre-incubation. In outline: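 FRT cells co-expressing F508del V470 CFTR and halide-sensitive YFP, temperature-corrected at 27° C for 16-24 h, then treated 30 min with compound plus 20 uM forskolin. Iodide addition quenches YFP, read after ~21 s; ratio scaled to DMSO (0%) and positive control potentiator (100%).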

T1 sequence (P13569 with tags, fused parts or gaps DEL508-508): as above

`CC(c1cn(-c2ccccc2F)nn1)n1cc(-c2cc[nH]n2)c2c(N)ncnc21` (single isomer, unassigned; enantiomer 1) [Example 121, 7-{1-[1-(2-Fluorophenyl)-1H-1,2,3-triazol-4-yl]ethyl}-5-(1H-pyrazol-3-yl)-7H-pyrrolo[2,3-d]pyrimidin-4-amine, enantiomer 1]: the EC50 in assay [1] worked out at 0.0892 µM; in assay [2], 0.03 µM.
Take `CC(c1cn(-c2ccc(F)cc2F)nn1)n1cc(-c2cnc(C(F)(F)F)nc2)c2c(N)ncnc21` (single isomer, unassigned; enantiomer 1) [Example 123, 7-{1-[1-(2,4-Difluorophenyl)-1H-1,2,3-triazol-4-yl]ethyl}-5-[2-(trifluoromethyl)pyrimidin-5-yl]-7H-pyrrolo[2,3-d]pyrimidin-4-amine, enantiomer 1]: the half-maximal effective concentration (EC50) was 0.0505 µM in assay [1] and 0.0216 µM in assay [2].
In the case of `CCC(c1cn(-c2ccccc2)nn1)n1cc(-c2ccc(OC)nc2)c2c(N)ncnc21` (single isomer, unassigned; enantiomer 1) [Example 125, 5-(6-Methoxypyridin-3-yl)-7-[1-(1-phenyl-1H-1,2,3-triazol-4-yl)propyl]-7H-pyrrolo[2,3-d]pyrimidin-4-amine, enantiomer 1], the EC50 in assay [1] came to 0.199 µM; in assay [2] it was 0.395 µM.
In the same order, the values of `CCC(c1cn(-c2ccccc2)nn1)n1cc(-c2cncnc2OC)c2c(N)ncnc21` (single isomer, unassigned; enantiomer 1) [Example 127, (−) 5-(4-Methoxypyrimidin-5-yl)-7-[1-(1-phenyl-1H-1,2,3-triazol-4-yl)propyl]-7H-pyrrolo[2,3-d]pyrimidin-4-amine, enantiomer 1] are 0.448 µM and 0.408 µM.
In the same order, the values of `CCC(c1cn(-c2ccccc2)nn1)n1cc(-c2cnc(C(F)(F)F)nc2)c2c(N)ncnc21` (single isomer, unassigned; enantiomer 1) [Example 129, 7-[1-(1-Phenyl-1H-1,2,3-triazol-4-yl)propyl]-5-[2-(trifluoromethyl)pyrimidin-5-yl]-7H-pyrrolo[2,3-d]pyrimidin-4-amine, enantiomer 1] are 0.0107 µM and 0.00846 µM.
With `CCC(c1cn(-c2ccccc2F)nn1)n1cc(-c2ccc(Cl)cc2)c2c(N)ncnc21` (single isomer, unassigned; enantiomer 1) [Example 131, 5-(4-Chlorophenyl)-7-{1-[1-(2-fluorophenyl)-1H-1,2,3-triazol-4-yl]propyl}-7H-pyrrolo[2,3-d]pyrimidin-4-amine, enantiomer 1], the EC50 is 0.282 µM in assay [1] and 0.623 µM in assay [2].
For `CCC(c1cn(-c2ccccc2F)nn1)n1cc(-c2cncnc2OC)c2c(N)ncnc21` (single isomer, unassigned; enantiomer 1) [Example 133, (−) 7-{1-[1-(2-Fluorophenyl)-1H-1,2,3-triazol-4-yl]propyl}-5-(4-methoxypyrimidin-5-yl)-7H-pyrrolo[2,3-d]pyrimidin-4-amine, enantiomer 1], the EC50 was determined as 0.721 µM in assay [1] and 0.918 µM in assay [2].
Regarding `CCC(c1cn(-c2ccccc2F)nn1)n1cc(-c2nccnc2OC)c2c(N)ncnc21` (single isomer, unassigned; enantiomer 1) [Example 135, (−) 7-{1-[1-(2-Fluorophenyl)-1H-1,2,3-triazol-4-yl]propyl}-5-(3-methoxypyrazin-2-yl)-7H-pyrrolo[2,3-d]pyrimidin-4-amine, enantiomer 1], the EC50 in assay [1] was 0.0653 µM; in assay [2], 0.203 µM.
The like results for `CCC(c1cn(-c2ccccc2F)nn1)n1cc(-c2cnc(C(F)(F)F)nc2)c2c(N)ncnc21` (single isomer, unassigned; enantiomer 1) [Example 137, 7-{1-[1-(2-Fluorophenyl)-1H-1,2,3-triazol-4-yl]propyl}-5-[2-(trifluoromethyl)pyrimidin-5-yl]-7H-pyrrolo[2,3-d]pyrimidin-4-amine, enantiomer 1] were, in that order, 0.0103 µM and 0.00586 µM.
The like results for `CCC(c1cn(-c2ccccc2F)nn1)n1cc(-c2cc(F)cnc2OC)c2c(N)ncnc21` (single isomer, unassigned; enantiomer 1) [Example 139, (+) 5-(5-Fluoro-2-methoxypyridin-3-yl)-7-{1-[1-(2-fluorophenyl)-1H-1,2,3-triazol-4-yl]propyl}-7H-pyrrolo[2,3-d]pyrimidin-4-amine, enantiomer 1] were, in that order, 0.003 µM and 0.00571 µM.
In the same order, the values of `CCC(c1cn(-c2ccccc2F)nn1)n1cc(-c2ccc(OC(F)F)nc2)c2c(N)ncnc21` (single isomer, unassigned; enantiomer 1) [Example 141, (−) 5-[6-(Difluoromethoxy)pyridin-3-yl]-7-{1-[1-(2-fluorophenyl)-1H-1,2,3-triazol-4-yl]propyl}-7H-pyrrolo[2,3-d]pyrimidin-4-amine, enantiomer 1] are 0.133 µM and 0.277 µM.
Regarding `CCC(c1cn(-c2ccccc2F)nn1)n1cc(-c2cnc(C(F)F)nc2)c2c(N)ncnc21` (single isomer, unassigned; enantiomer 1) [Example 143, 5-[2-(Difluoromethyl)pyrimidin-5-yl]-7-{1-[1-(2-fluorophenyl)-1H-1,2,3-triazol-4-yl]propyl}-7H-pyrrolo[2,3-d]pyrimidin-4-amine, enantiomer 1], the EC50 in assay [1] was 0.026 µM; in assay [2] it was 0.0105 µM.
In the same order, the values of `CCC(c1cn(-c2ccccc2F)nn1)n1cc(-c2cnc(N(C)C)nc2)c2c(N)ncnc21` (single isomer, unassigned; enantiomer 1) [Example 145, 5-[2-(Dimethylamino)pyrimidin-5-yl]-7-{1-[1-(2-fluorophenyl)-1H-1,2,3-triazol-4-yl]propyl}-7H-pyrrolo[2,3-d]pyrimidin-4-amine, enantiomer 1] are 0.0297 µM and 0.026 µM.
In the same order, the values of `CCC(c1cn(-c2ccc(F)cc2)nn1)n1cc(-c2cncnc2OC)c2c(N)ncnc21` (single isomer, unassigned; enantiomer 1) [Example 149, (+) 7-{1-[1-(4-Fluorophenyl)-1H-1,2,3-triazol-4-yl]propyl}-5-(4-methoxypyrimidin-5-yl)-7H-pyrrolo[2,3-d]pyrimidin-4-amine, enantiomer 1] are 0.0453 µM and 0.0289 µM.
In the same order, the values of `CCC(c1cn(-c2ccc(F)c(F)c2)nn1)n1cc(-c2cncnc2OC)c2c(N)ncnc21` (single isomer, unassigned; enantiomer 1) [Example 151, (+) 7-{1-[1-(3,4-Difluorophenyl)-1H-1,2,3-triazol-4-yl]propyl}-5-(4-methoxypyrimidin-5-yl)-7H-pyrrolo[2,3-d]pyrimidin-4-amine, enantiomer 1] are 0.0355 µM and 0.0341 µM.
For the molecule `CCC(c1cn(-c2ccc(F)c(F)c2)nn1)n1cc(-c2cnc(C(F)(F)F)nc2)c2c(N)ncnc21` (single isomer, unassigned; enantiomer 1) [Example 153, 7-{1-[1-(3,4-Difluorophenyl)-1H-1,2,3-triazol-4-yl]propyl}-5-[2-(trifluoromethyl)pyrimidin-5-yl]-7H-pyrrolo[2,3-d]pyrimidin-4-amine, enantiomer 1], the EC50 in assay [1] is 0.0198 µM; in assay [2], 0.059 µM.
In the same order, the values of `CCC(c1cn(-c2ccc(F)c(F)c2)nn1)n1cc(-c2cc(F)cnc2OC)c2c(N)ncnc21` (single isomer, unassigned; enantiomer 1) [Example 155, 7-{1-[1-(3,4-Difluorophenyl)-1H-1,2,3-triazol-4-yl]propyl}-5-(5-fluoro-2-methoxypyridin-3-yl)-7H-pyrrolo[2,3-d]pyrimidin-4-amine, enantiomer 1] are 0.00917 µM and 0.0386 µM.
The like results for `CCC(c1cn(-c2ccc(F)c(F)c2)nn1)n1cc(-c2cnc(OC)c(F)c2)c2c(N)ncnc21` (single isomer, unassigned; enantiomer 1) [Example 157, 7-{1-[1-(3,4-Difluorophenyl)-1H-1,2,3-triazol-4-yl]propyl}-5-(5-fluoro-6-methoxypyridin-3-yl)-7H-pyrrolo[2,3-d]pyrimidin-4-amine, enantiomer 1] were, in that order, 0.239 µM and 0.433 µM.
The like results for `CCC(c1cn(-c2ccc(F)cc2F)nn1)n1cc(-c2cncnc2OC)c2c(N)ncnc21` (single isomer, unassigned; enantiomer 1) [Example 159, (+) 7-{1-[1-(2,4-Difluorophenyl)-1H-1,2,3-triazol-4-yl]propyl}-5-(4-methoxypyrimidin-5-yl)-7H-pyrrolo[2,3-d]pyrimidin-4-amine, enantiomer 1] were, in that order, 0.0355 µM and 0.0185 µM.
In the case of `CCC(c1cn(-c2ccc(F)cc2F)nn1)n1cc(-c2cc(F)cnc2OC)c2c(N)ncnc21` (single isomer, unassigned; enantiomer 1) [Example 163, 7-{1-[1-(2,4-Difluorophenyl)-1H-1,2,3-triazol-4-yl]propyl}-5-(5-fluoro-2-methoxypyridin-3-yl)-7H-pyrrolo[2,3-d]pyrimidin-4-amine, enantiomer 1], the concentration for a half-maximal effect (EC50) was 0.0972 µM in assay [1] and 0.296 µM in assay [2].

What is called EC50 is the concentration that produces a half-maximal response.
